Measured values from publication PMC6001238, “Iterative Chemical Engineering of Vancomycin Leads to Novel Vancomycin Analogs With a High in Vitro Therapeutic Index” (Frontiers in Microbiology, 2018).
Converted amounts (≈) assume the structure as drawn.

Assays:
[1] = test system: MRSA KS6; assay: MIC, broth microdilution, MRSA KS6; type: cell-based, Staphylococcus aureus; details: for MIC-fold improvement vs. vancomycin: MRSA KS6, ratio of MIC of vancomycin and MIC of analogue; for MIC: Staphylococcus aureus MRSA KS6, read-out: MIC
Procedure, shortened: (§1)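 Following CLSI antimicrobial susceptibility standards, organisms were tested by broth microdilution. Controls comprised ultrapure water plus broth left uninoculated. For a single condition, 10 μM vancomycin (final) accompanied the analog or control agent.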

[2] = test system: Murine leukemia (L1210) cells; assay: Cytostatic activity, L1210 cell proliferation; type: cell-based; details: mean ± SD of three experiments; highest concentration tested 250 µM; 2 days; read-out: Toxicity (IC50) L1210
Procedure, shortened: (§2)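 Suspensions (300,000–500,000 cells/mL) combined with equal volumes of diluted compound; 37°C; L1210 2 d / CEM 3 d / HeLa 4 d; counted by Coulter counter; IC50 vs untreated wells.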

[3] = test system: L1210, CEM and HeLa cell lines; assay: Cytostatic activity, average or summary over L1210, CEM and HeLa; type: cell-based; details: average of L1210, CEM and HeLa; read-out: Toxicity (IC50) Average
Procedure, shortened: as §2

[4] = test system: E. faecalis VRE 6; assay: MIC, broth microdilution, vancomycin-resistant E. faecalis VRE 6 (VanA); type: cell-based, Enterococcus faecalis; details: for MIC: Enterococcus faecalis VRE 6 (vancomycin-resistant), read-out: MIC; for MIC-fold improvement vs. vancomycin: VRE 6, ratio of MIC of vancomycin and MIC of analogue
Procedure, shortened: as §1

[5] = test system: human cervix carcinoma (HeLa) cells; assay: Cytostatic activity, HeLa cell proliferation; type: cell-based; details: mean ± SD of three experiments; highest concentration tested 250 µM; 4 days; read-out: Toxicity (IC50) HeLa
Procedure, shortened: as §2

[6] = test system: S. aureus VISA/HIP5827; assay: MIC, broth microdilution, vancomycin-intermediate S. aureus VISA HIP5827; type: cell-based, Staphylococcus aureus; details: for MIC: Staphylococcus aureus VISA/HIP5827, read-out: MIC; for MIC-fold improvement vs. vancomycin: VISA/HIP5827, ratio of MIC of vancomycin and MIC of analogue
Procedure, shortened: as §1

[7] = test system: MRSA KS1; assay: MIC, broth microdilution, MRSA KS1; type: cell-based, Staphylococcus aureus; details: for MIC-fold improvement vs. vancomycin: MRSA KS1, ratio of MIC of vancomycin and MIC of analogue; for MIC: Staphylococcus aureus MRSA KS1, read-out: MIC
Procedure, shortened: as §1

[8] = test system: S. aureus VSSA (ATCC 6538); assay: MIC, broth microdilution, vancomycin-sensitive S. aureus (VSSA/MSSA, ATCC 6538); type: cell-based, Staphylococcus aureus; details: for MIC: Staphylococcus aureus VSSA, read-out: MIC; for MIC-fold improvement vs. vancomycin: VSSA, ratio of MIC of vancomycin and MIC of analogue
Procedure, shortened: as §1

[9] = test system: MRSA KS2; assay: MIC, broth microdilution, MRSA KS2; type: cell-based, Staphylococcus aureus; details: for MIC-fold improvement vs. vancomycin: MRSA KS2, ratio of MIC of vancomycin and MIC of analogue; for MIC: Staphylococcus aureus MRSA KS2, read-out: MIC
Procedure, shortened: as §1

[10] = test system: S. aureus VRSA; assay: MIC, broth microdilution, vancomycin-resistant S. aureus (VRSA); type: cell-based, Staphylococcus aureus; details: for MIC: Staphylococcus aureus VRSA, read-out: MIC; for MIC-fold improvement vs. vancomycin: VRSA, ratio of MIC of vancomycin and MIC of analogue
Procedure, shortened: as §1

[11] = test system: E. faecalis VRE 29; assay: MIC, broth microdilution, vancomycin-resistant E. faecalis VRE 29 (VanA); type: cell-based, Enterococcus faecalis; details: for MIC: Enterococcus faecalis VRE 29 (vancomycin-resistant), read-out: MIC; for MIC-fold improvement vs. vancomycin: VRE 29, ratio of MIC of vancomycin and MIC of analogue
Procedure, shortened: as §1

[12] = test system: E. faecalis VSE 1; assay: MIC, broth microdilution, vancomycin-sensitive E. faecalis (VSE 1); type: cell-based, Enterococcus faecalis; details: for MIC: Enterococcus faecalis VSE 1 (vancomycin-sensitive), read-out: MIC; for MIC-fold improvement vs. vancomycin: VSE 1, ratio of MIC of vancomycin and MIC of analogue
Procedure, shortened: as §1

[13] = test system: E. faecalis VRE 37; assay: MIC, broth microdilution, vancomycin-resistant E. faecalis VRE 37 (VanA); type: cell-based, Enterococcus faecalis; details: for MIC: Enterococcus faecalis VRE 37 (vancomycin-resistant), read-out: MIC; for MIC-fold improvement vs. vancomycin: VRE 37, ratio of MIC of vancomycin and MIC of analogue
Procedure, shortened: as §1

[14] = test system: E. faecalis VRE 53; assay: MIC, broth microdilution, vancomycin-resistant E. faecalis VRE 53 (VanA); type: cell-based, Enterococcus faecalis; details: for MIC: Enterococcus faecalis VRE 53 (vancomycin-resistant), read-out: MIC; for MIC-fold improvement vs. vancomycin: VRE 53, ratio of MIC of vancomycin and MIC of analogue
Procedure, shortened: as §1

[15] = test system: human T-lymphocyte (CEM) cells; assay: Cytostatic activity, CEM cell proliferation; type: cell-based; details: mean ± SD of three experiments; highest concentration tested 250 µM; 3 days; read-out: Toxicity (IC50) CEM
Procedure, shortened: as §2

[16] = test system: MRSA KS89; assay: MIC, broth microdilution, MRSA KS89; type: cell-based, Staphylococcus aureus; details: for MIC-fold improvement vs. vancomycin: MRSA KS8, ratio of MIC of vancomycin and MIC of analogue; for MIC: Staphylococcus aureus MRSA KS8, read-out: MIC
Procedure, shortened: as §1

SMILES	MIC-fold improvement vs. vancomycin [1]	MIC [1]	IC50 [2]	IC50 [3]	MIC [4]	MIC-fold improvement vs. vancomycin [4]	IC50 [5]	MIC [6]	MIC-fold improvement vs. vancomycin [6]	MIC-fold improvement vs. vancomycin [7]	MIC [7]	MIC [8]	MIC-fold improvement vs. vancomycin [8]	MIC-fold improvement vs. vancomycin [9]	MIC [9]	MIC [10]	MIC-fold improvement vs. vancomycin [10]	MIC [11]	MIC-fold improvement vs. vancomycin [11]	MIC [12]	other results
CNC(CC(C)C)C(=O)NC1C(=O)NC(CC(N)=O)C(=O)NC2C(=O)NC3C(=O)NC(C(=O)NC(C(=O)NCCNC(=O)C=Cc4ccc(NS(=O)(=O)c5ccc(Cl)cc5)cc4)c4cc(O)cc(O)c4-c4cc3ccc4O)C(O)c3ccc(c(Cl)c3)Oc3cc2cc(c3OC2OC(CO)C(O)C(O)C2OC2CC(C)(N)C(O)C(C)O2)Oc2ccc(cc2Cl)C1O (stereo not drawn) [Vanc-62]	2	0.39 µM (≈ 0.706 µg/mL)	> 250 µM	195 µM	3.13 µM (≈ 5.67 µg/mL)	64	86 ± 42 µM	1.56 µM (≈ 2.83 µg/mL)	4	4	0.20 µM (≈ 0.362 µg/mL)	0.39 µM (≈ 0.706 µg/mL)	2	4	0.20 µM (≈ 0.362 µg/mL)	0.78 µM (≈ 1.41 µg/mL)	128	6.25 µM (≈ 11.3 µg/mL)	64	0.39 µM (≈ 0.706 µg/mL)	MIC-fold improvement vs. vancomycin [12]: 4; MIC [13]: 12.5 µM (≈ 22.6 µg/mL); MIC [14]: 25 µM (≈ 45.3 µg/mL); MIC-fold improvement vs. vancomycin [14]: 16; IC50 [15]: ≥ 250 µM; MIC-fold improvement vs. vancomycin [16]: 2; MIC [16]: 0.39 µM (≈ 0.706 µg/mL)
CCCCCc1ccc(C(=O)NCCCNC(=O)C2NC(=O)C3NC(=O)C(NC(=O)C4NC(=O)C(CC(N)=O)NC(=O)C(NC(=O)C(CC(C)C)NC)C(O)c5ccc(c(Cl)c5)Oc5cc4cc(c5OC4OC(CO)C(O)C(O)C4OC4CC(C)(N)C(O)C(C)O4)Oc4ccc(cc4Cl)C3O)c3ccc(O)c(c3)-c3c(O)cc(O)cc32)cc1 (stereo not drawn) [Vanc-49]	4	0.20 µM (≈ 0.336 µg/mL)	63 ± 8 µM	66 µM	6.25 µM (≈ 10.5 µg/mL)	32	99 ± 1 µM	0.39 µM (≈ 0.655 µg/mL)	16	>8	<0.10 µM	0.20 µM (≈ 0.336 µg/mL)	4	4	0.20 µM (≈ 0.336 µg/mL)	0.39 µM (≈ 0.655 µg/mL)	256	6.25 µM (≈ 10.5 µg/mL)	64	0.39 µM (≈ 0.655 µg/mL)	MIC-fold improvement vs. vancomycin [12]: 4; MIC [13]: 6.25 µM (≈ 10.5 µg/mL); MIC-fold improvement vs. vancomycin [13]: 64; MIC [14]: 6.25 µM (≈ 10.5 µg/mL); MIC-fold improvement vs. vancomycin [14]: 64; IC50 [15]: 36 ± 8 µM; MIC-fold improvement vs. vancomycin [16]: 4; MIC [16]: 0.20 µM (≈ 0.336 µg/mL)
CN[C@H](CC(C)C)C(=O)N[C@H]1C(=O)N[C@@H](CC(N)=O)C(=O)N[C@H]2C(=O)N[C@H]3C(=O)N[C@H](C(=O)N[C@H](C(=O)NCC(=O)Nc4ccc(Cl)cn4)c4cc(O)cc(O)c4-c4cc3ccc4O)[C@H](O)c3ccc(c(Cl)c3)Oc3cc2cc(c3O[C@@H]2O[C@H](CO)[C@@H](O)[C@H](O)[C@H]2O[C@H]2C[C@](C)(N)[C@H](O)[C@H](C)O2)Oc2ccc(cc2Cl)[C@H]1O [Vanc-44]	0.25	3.13 µM (≈ 5.06 µg/mL)	≥ 250 µM	203 µM	12.5 µM (≈ 20.2 µg/mL)	16	108 ± 38 µM	1.56 µM (≈ 2.52 µg/mL)	4	1	0.78 µM (≈ 1.26 µg/mL)	0.78 µM (≈ 1.26 µg/mL)	1	1	0.78 µM (≈ 1.26 µg/mL)	12.5 µM (≈ 20.2 µg/mL)	8	25 µM (≈ 40.4 µg/mL)	16	0.78 µM (≈ 1.26 µg/mL)	MIC-fold improvement vs. vancomycin [12]: 2; MIC [13]: 25 µM (≈ 40.4 µg/mL); MIC-fold improvement vs. vancomycin [13]: 16; MIC [14]: 50 µM (≈ 80.8 µg/mL); MIC-fold improvement vs. vancomycin [14]: 8; IC50 [15]: ≥ 250 µM; MIC-fold improvement vs. vancomycin [16]: 1; MIC [16]: 0.78 µM (≈ 1.26 µg/mL)
CCOc1ccc(-c2ccc(NC(=O)CNC(=O)C3NC(=O)C4NC(=O)C(NC(=O)C5NC(=O)C(CC(N)=O)NC(=O)C(NC(=O)C(CC(C)C)NC)C(O)c6ccc(c(Cl)c6)Oc6cc5cc(c6OC5OC(CO)C(O)C(O)C5OC5CC(C)(N)C(O)C(C)O5)Oc5ccc(cc5Cl)C4O)c4ccc(O)c(c4)-c4c(O)cc(O)cc43)cc2)cc1 (stereo not drawn) [Vanc-86]	2	0.39 µM (≈ 0.664 µg/mL)	3 ± 2.3 µM	5 µM	1.56 µM (≈ 2.65 µg/mL)	128	9.8 ± 5.8 µM	0.78 µM (≈ 1.33 µg/mL)	8	4	0.20 µM (≈ 0.34 µg/mL)	0.39 µM (≈ 0.664 µg/mL)	2	4	0.20 µM (≈ 0.34 µg/mL)	1.56 µM (≈ 2.65 µg/mL)	64	3.13 µM (≈ 5.33 µg/mL)	128	≤0.05 µM	MIC-fold improvement vs. vancomycin [12]: ≥32; MIC [13]: 6.25 µM (≈ 10.6 µg/mL); MIC-fold improvement vs. vancomycin [13]: 64; MIC [14]: 12.5 µM (≈ 21.3 µg/mL); MIC-fold improvement vs. vancomycin [14]: 32; IC50 [15]: 1 ± 0.2 µM; MIC-fold improvement vs. vancomycin [16]: 2; MIC [16]: 0.39 µM (≈ 0.664 µg/mL)
